Data: US12438175B2, “Aqueous organic-based electrolyte for redox flow battery” (KEMIWATT, priority 2019, dated 2025)
≈ marks a conversion by molar mass, not a printed value.

Columns and labels:
[1] = Cyclic voltammetry / linear sweep voltammetry, electrochemical parameters; assay type: physicochemical; details: for Peak-to-peak separation ΔEp: 100 mV/s, third cycle
Method: Cyclic voltammetry experiments were performed at a 100 mV/s scan rate for compounds M3CH, D3CH, D4CH, M3SH, D3SH, M4SH and D4SH in solution at pH 13 (KOH 0.1 M) or pH 14 (KOH 1 M).
The electrochemical experiments were conducted on an electrochemical working station (BioLogic Science Instruments VSP) at 25° C. using a three-electrodes electrochemical cell, where a Pt wire was employed at the counter electrode (CE), an Ag/AgCl/KCl saturated electrode immerged in a 1 M KOH solution protected from the cell by a porous frit glass served as the reference electrode (RE) and a rotating disc electrode (RDE) mounted with a glassy carbon (GC, 7.069 mm^2) disk was used as the working electrode (WE), respectively. The potential was reported relative to the normal hydrogen electrode (NHE), which was converted from the Ag/AgCl reference electrode (0.230 V versus NHE). The ohmic drop between the WE and RE is determined by current interrupt experiments and leads to a value close to 0.7069 Ω·cm^2. All cyclic voltammetry experiments were conducted by alleviating most of this resistance (85%) using the potentiostat manual ohmic drop compensation. Before each electrochemical measurement, the GC disk electrode was polished using SiC P4000 foil.
Each recorded cyclic voltammetry of the reduction and the oxidation process of a compound at a given scan rate is analyzed by measuring ip,a=anodic peak current; ip,c=cathodic peak current; v=scan rate; Ep,a=anodic peak potential; Ep,c=cathodic peak potential; ΔEp=Ep,a−Ep,c; the apparent standard redox potential E^0′=[…].
Linear sweep voltammetry (LSV) using the RDE at various rotation speed (400 up to 1 000 RPM) were performed to determine the averaged half-wave potential E1/2.
The oxidation (DO) and the reduction (DR) diffusion coefficients were calculated using Randles-Sevcik (RS) equation ip=0.4463·n^3/2·F^3/2·A·C·v^1/2·D^1/2·R^−1/2·T^−1/2=Cye·v^1/2·D^1/2, n=number of electrons exchanged during the redox process; F=faradaic number=96485 C·mol^−1; A=electrode active surface; C=redox active molecule concentration; R=gas constant=8.314 J·K^−1·mol^−1; T=bulk temperature=299 K. The experiments are conducted by cyclic voltammetry at various scan rates ranging from 10 mV/s up to 20 V/s.
A graphic of lip,al and lip,cl=f(Cte×v^1/2) is plotted, if the redox process is reversible and diffusion controlled, the peak current should be proportional to the square root of the scan rate. The diffusion coefficients (oxidation and reduction) are then calculated by taking the square of the regression lines slopes. Diffusion coefficients (oxidation and reduction processes) are evaluated by plotting the peak current versus a constant multiplied by the square root of the scan rate. The plots regression line gives a straight line with perfect correlation coefficient (100%) confirming that the redox process is reversible and diffusion controlled. The square of each slope gives the associated coefficient diffusion in cm^2 s^−1.
The apparent heterogeneous rate constant during oxidation (k^0′O)/and reduction (k^0′R) process was calculated using Gileadi's equation (C. Rüssel, W. Jaenicke, Electrochimica Acta, Vol 27, N° 12, 1745-1750, 1982) log k^0′=−0.48α+0.52 +log[(nFαvcD)/(2.303RT)]^1/2; vc is the critical scan rate, it is calculated by plotting the peak potentials versus the logarithm of the scan rates, and is more precise when a very wide range of scan rates is used, which is the case here (0.010 up to 20 V·s^−1), it is determined at the x-axis of the point of intersection of the regression lines drawn at low and high scan rates; a is the transfer coefficient that is supposed to be close to 0.5 for all presented compounds.
Peak-to-peak separation ΔEp values were determined from the third cycle of each cyclic voltammogram (FIGS. 1 and 2) and are gathered in the following table 4.
The standard redox process reversibility evaluation is performed in diluted state, at 5 mM of concentration, at pH 14 buffered with 1 M of KOH. […]

[2] = Degradation study by 1H NMR of electrolyte heated at 40° C.; assay type: physicochemical
Method: This study consists of NMR ^1H measurements of an electrolyte heated at 40° C. and kept under stirring at 300 RPM using a magnetic stirrer.
Such behavior was detailed in the literature (WO 2019/157437) and is characteristic of a nucleophilic attack i.e. of OH^− in strong alkaline environment causing the functionalized arm to be cleaved.

[3] = Cycling tests of redox flow battery cells in galvanostatic mode; details: Test 1: 0.5 M M3CH, pH 13.0
[4] = Solubility in aqueous solution at various pH by shake-flask method; details: thermodynamic from solid
[5] = Cycling tests of redox flow battery cells in constant power cycling mode; details: extrapolated from 5 days; flowrate 0.5 mL/min/cm^2; negolyte 120/120/40/370 mL

E^0′ apparent standard redox potential ([1]; 5 mM, pH 14, 1 M KOH): −0.484 V vs NHE | E1/2 half-wave potential ([1]; 5 mM, pH 14, 1 M KOH, RDE): −0.484 V vs NHE | k^0′O × 10^−2 apparent heterogeneous rate constant ([1]; Gileadi's equation): 2.3 × 10^−2 cm/s | DO × 10^−6 diffusion coefficient ([1]; Randles-Sevcik): 5.2 × 10^−6 cm^2/s | Peak-to-peak separation ΔEp ([1]; pH 13 (KOH 0.1 M)): 140 mV | Peak-to-peak separation ΔEp ([1]; pH 14 (KOH 1 M)): 31 mV | degradation rate ([2]; 0.05 M, pH 13.9, 40° C.): roughly 15 % per month | degradation after a month ([2]; 0.4 M, pH 13.5, 0.8 M KOH, 0.3 M NaOH, 40° C.): did not undergo any degradation | solubility over state-of-charge [3]: soluble at every state-of-charge | solubility ([4]; aqueous H2SO4 1M solution, pH 0, aqueous buffer): 310 mM (≈ 101 mg/mL) | solubility ([4]; aqueous KOH 1M solution, pH 14, aqueous buffer): 530 mM (≈ 173 mg/mL) | Stability in cycles (−20%) [5]: 28449 cycles | Stability in days (−20%) [5]: 10942.1 days
SMILES: O=C(O)CCCOc1ccc(O)c2c1C(=O)c1ccccc1C2=O [Compound M3CH]
